The values below come from US20260000729A1, “COMBINATION THERAPIES FOR TREATMENT OF CANCER” (The Regents of the University of Michigan, priority 2022, published 2026).

Test [1] deals with PC3-luc cells. Put plainly: Intratibial PC3-luc tumor growth in SCID mice, checked weekly by BLI. Type of test: in vivo. The following applies: BAL 20 mg/kg s.c. twice daily, DOC 5 mg/kg i.p. once a week, weeks 1-4, combination p=0.009. As for the experimental part: Methods: 59 severe combined immunodeficiency (SCID) mice received intratibial injection with PC3-luc cells (2×10^4 cells in 20 ul). Balixafortide (20 mg/kg) (BAL) and vehicle were injected subcutaneously twice daily starting on day one and Docetaxel (5 mg/kg) (DOC) was injected intraperitoneal once a week starting on day one. The tumor growth in mouse tibia was checked weekly by BLI.

In test [2] the test system is PC3-luc cells. The experiment in a line: Radiograph of injected tibia at necropsy: bone degradation and percent osteolytic area. Type of test: in vivo, mice. The following applies: proximal third of tibia, no significant differences among the groups. As to the method:
After 30 days, at the time of necropsy, tumor growth in mouse tibia was checked by radiograph and mice were sacrificed, and serum and bone were collected. Serum was kept at −80° C. and tibia were stored in 10% buffered formalin at room temperature for 48 hours before being stored at 4° C.
Radiographic images were imported into SketchandCalc software. The proximal third of the tibia was traced to calculate its area and defined as total area, then osteolytic areas were traced to calculate the total osteolytic area (FIG. 3A) and the percent osteolytic area/bone area was calculated.

Take “cyclo(-Tyr-His-Ala-Cys-Ser-Ala-^DPro-Dab-Arg-Tyr-Cys-Tyr-Gln-Lys-^DPro-Pro-) having a disulfide bond between Cys4 and Cys11 [Balixafortide]”: in the test with PC3-luc cells [1], the “tumor growth / total tumor burden in mouse tibia (BLI)” value was “neither BAL nor DOC impacted tumor growth as sole agents”. In addition, the “percent osteolytic area/bone area (mean)” value with PC3-luc cells [2] was “no significant differences among the groups”.
For the compound `CC(=O)O[C@@]12CO[C@@H]1C[C@H](O)[C@@]1(C)C(=O)[C@H](O)C3=C(C)[C@@H](OC(=O)[C@H](O)[C@@H](NC(=O)OC(C)(C)C)c4ccccc4)C[C@@](O)([C@@H](OC(=O)c4ccccc4)[C@H]21)C3(C)C` [Docetaxel, (2R,3S)—N-carboxy-3-phenylisoserine,N-tert-butylester, 13 ester with 5ß-20-epoxy-1,2a,4,78,10B,13a-hexahydroxytax-11-en-9-one 4-acetate 2 benzoate], the “tumor growth / total tumor burden in mouse tibia (BLI)” value in the test with PC3-luc cells [1] is given as “neither BAL nor DOC impacted tumor growth as sole agents”. In addition, the “percent osteolytic area/bone area (mean)” value with PC3-luc cells [2] is reported as “lower than vehicle or Balixafortide”.
